Results: ChEMBL document CHEMBL3885861, “Open TG-GATES”

Organism: Rattus norvegicus
Assay: Open TG-GATES - Regimen: Daily Repeat
Type: toxicity, organism-based, Sprague-Dawley
Design: regimen Daily Repeat, gender Male, age 6 weeks
Conditions: in vivo, po, route gavage; for APTT / Bas / Eos / Fbg / Hb / Ht / Lym / MCH / MCHC / MCV / Mono / Neu / PT / Plat / RBC / Ret / WBC: tissue Blood; for KIDNEY_L / KIDNEY_R / KIDNEY_TOTAL: tissue Kidney; for LIVER: tissue Liver; for A/G / ALP / ALT / AST / BUN / CRE / Ca / Cl / DBIL / GLC / IP / K / LDH / Na / PL / RALB / TBIL / TC / TG / TP / gamma-GTP: tissue Plasma
[1] = 100 mg/kg, 72 h, dose level Middle, time 3 day
[2] = 100 mg/kg, […], dose level Middle, time 7 day
[3] = 100 mg/kg, […], dose level Middle, time 14 day
[4] = 100 mg/kg, […], dose level Middle, time 28 day
[5] = 300 mg/kg, 72 h, dose level High, time 3 day
[6] = 300 mg/kg, […], dose level High, time 7 day
[7] = 300 mg/kg, […], dose level High, time 14 day
[8] = 300 mg/kg, […], dose level High, time 28 day

## CC[C@H]1[C@@H]2C[C@H]3[C@@H]4N(C)c5ccccc5[C@]45C[C@@H]([C@@H]2[C@H]5O)N3[C@@H]1O [AJMALINE]
[1]
  TERMINAL_BW: 207.1 g
  APTT: 16.3 s
  Bas: 0%
  Eos: 1%
  Fbg: 202.6 mg/dL
  Hb: 12.8 g/dL
  Ht: 39.2%
  Lym: 79%
  MCH: 21.3 pg
  MCHC: 32.8%
  MCV: 65.1 fL
  Mono: 6%
  Neu: 13.6%
  PT: 11.8 s
  Plat: 114.8 x10_4/uL
  RBC: 601.8 x10_4/ul
  Ret: 7.8%
  WBC: 101.3 x10_2/uL
  KIDNEY_L: 1 g
  KIDNEY_R: 0.9 g
  KIDNEY_TOTAL: 1.9 g
  LIVER: 9.7 g
  A/G: 1.9
  ALP: 888.2 IU/L
  ALT: 39.2 IU/L
  AST: 63 IU/L
  BUN: 16.2 mg/dL
  CRE: 0.5 mg/dL
  Ca: 10.6 mg/dL
  Cl: 102.2 meq/L
  DBIL: 0.04 mg/dL
  GLC: 201 mg/dL
  IP: 7.9 mg/dL
  K: 4.3 meq/L
  LDH: 98.6 IU/L
  Na: 139.2 meq/L
  PL: 138 mg/dL
  RALB: 3.5 g/dL
  TBIL: 0.3 mg/dL
  TC: 71.8 mg/dL
  TG: 81 mg/dL
  TP: 5.3 g/dL
  gamma-GTP: 1 IU/L
[2]
  TERMINAL_BW: 245.4 g
  APTT: 16.6 s
  Bas: 0%
  Eos: 0.8%
  Fbg: 231.4 mg/dL
  Hb: 13.3 g/dL
  Ht: 40.4%
  Lym: 78.8%
  MCH: 21.1 pg
  MCHC: 32.8%
  MCV: 64.4 fL
  Mono: 7.6%
  Neu: 13%
  PT: 11.3 s
  Plat: 128.6 x10_4/uL
  RBC: 628 x10_4/ul
  Ret: 6.9%
  WBC: 119.7 x10_2/uL
  KIDNEY_L: 1 g
  KIDNEY_R: 1.1 g
  KIDNEY_TOTAL: 2.1 g
  LIVER: 12.2 g
  A/G: 2
  ALP: 770 IU/L
  ALT: 32.8 IU/L
  AST: 61.4 IU/L
  BUN: 18 mg/dL
  CRE: 0.5 mg/dL
  Ca: 11.6 mg/dL
  Cl: 103.8 meq/L
  DBIL: 0.012 mg/dL
  GLC: 219.2 mg/dL
  IP: 8.7 mg/dL
  K: 4.7 meq/L
  LDH: 106.8 IU/L
  Na: 142.8 meq/L
  PL: 154.4 mg/dL
  RALB: 3.8 g/dL
  TBIL: 0.3 mg/dL
  TC: 80 mg/dL
  TG: 94.6 mg/dL
  TP: 5.7 g/dL
  gamma-GTP: 1.4 IU/L
[3]
  TERMINAL_BW: 299.4 g
  APTT: 16.9 s
  Bas: 0%
  Eos: 0.8%
  Fbg: 231.4 mg/dL
  Hb: 14.1 g/dL
  Ht: 42.6%
  Lym: 80.6%
  MCH: 20.4 pg
  MCHC: 33.1%
  MCV: 61.7 fL
  Mono: 5.6%
  Neu: 13.4%
  PT: 11.2 s
  Plat: 140 x10_4/uL
  RBC: 690 x10_4/ul
  Ret: 4.7%
  WBC: 140 x10_2/uL
  KIDNEY_L: 1.2 g
  KIDNEY_R: 1.2 g
  KIDNEY_TOTAL: 2.3 g
  LIVER: 13.4 g
  A/G: 1.9
  ALP: 802.8 IU/L
  ALT: 31.8 IU/L
  AST: 65.6 IU/L
  BUN: 19.4 mg/dL
  CRE: 0.6 mg/dL
  Ca: 11 mg/dL
  Cl: 104 meq/L
  DBIL: 0.012 mg/dL
  GLC: 207 mg/dL
  IP: 7.6 mg/dL
  K: 4.7 meq/L
  LDH: 116.4 IU/L
  Na: 140.6 meq/L
  PL: 153.2 mg/dL
  RALB: 3.7 g/dL
  TBIL: 0.4 mg/dL
  TC: 77 mg/dL
  TG: 109.6 mg/dL
  TP: 5.7 g/dL
  gamma-GTP: 1.2 IU/L
[4]
  TERMINAL_BW: 363.5 g
  APTT: 16.5 s
  Bas: 0%
  Eos: 1%
  Fbg: 218.6 mg/dL
  Hb: 15.3 g/dL
  Ht: 45.6%
  Lym: 83%
  MCH: 19.2 pg
  MCHC: 33.4%
  MCV: 57.5 fL
  Mono: 4.8%
  Neu: 11.2%
  PT: 11.5 s
  Plat: 123.8 x10_4/uL
  RBC: 795 x10_4/ul
  Ret: 2.1%
  WBC: 123.3 x10_2/uL
  KIDNEY_L: 1.3 g
  KIDNEY_R: 1.3 g
  KIDNEY_TOTAL: 2.6 g
  LIVER: 14.6 g
  A/G: 1.8
  ALP: 699.2 IU/L
  ALT: 33.4 IU/L
  AST: 59.8 IU/L
  BUN: 17.8 mg/dL
  CRE: 0.6 mg/dL
  Ca: 10.2 mg/dL
  Cl: 104.4 meq/L
  DBIL: 0.036 mg/dL
  GLC: 189.8 mg/dL
  IP: 6.6 mg/dL
  K: 4.5 meq/L
  LDH: 87.6 IU/L
  Na: 141.2 meq/L
  PL: 131.6 mg/dL
  RALB: 3.9 g/dL
  TBIL: 0.3 mg/dL
  TC: 60.6 mg/dL
  TG: 108.4 mg/dL
  TP: 6 g/dL
  gamma-GTP: 1.6 IU/L
[5]
  TERMINAL_BW: 209.6 g
  APTT: 16.2 s
  Bas: 0%
  Eos: 1%
  Fbg: 214 mg/dL
  Hb: 12.9 g/dL
  Ht: 39.7%
  Lym: 82.8%
  MCH: 20.9 pg
  MCHC: 32.4%
  MCV: 64.4 fL
  Mono: 7.2%
  Neu: 9.6%
  PT: 11.6 s
  Plat: 121.1 x10_4/uL
  RBC: 616.8 x10_4/ul
  Ret: 7.8%
  WBC: 133 x10_2/uL
  KIDNEY_L: 0.9 g
  KIDNEY_R: 0.9 g
  KIDNEY_TOTAL: 1.9 g
  LIVER: 10.3 g
  A/G: 2
  ALP: 989.6 IU/L
  ALT: 44.2 IU/L
  AST: 68.2 IU/L
  BUN: 17 mg/dL
  CRE: 0.5 mg/dL
  Ca: 11.5 mg/dL
  Cl: 100.4 meq/L
  DBIL: 0.034 mg/dL
  GLC: 200 mg/dL
  IP: 8.3 mg/dL
  K: 4.4 meq/L
  LDH: 123.2 IU/L
  Na: 138.8 meq/L
  PL: 150 mg/dL
  RALB: 3.6 g/dL
  TBIL: 0.3 mg/dL
  TC: 87.6 mg/dL
  TG: 57.2 mg/dL
  TP: 5.4 g/dL
  gamma-GTP: 0.8 IU/L
[6]
  TERMINAL_BW: 244.7 g
  APTT: 16.4 s
  Bas: 0%
  Eos: 0.8%
  Fbg: 225.6 mg/dL
  Hb: 13.2 g/dL
  Ht: 39.9%
  Lym: 81%
  MCH: 21.1 pg
  MCHC: 33.1%
  MCV: 63.6 fL
  Mono: 4.4%
  Neu: 13.4%
  PT: 11.3 s
  Plat: 142.3 x10_4/uL
  RBC: 627.2 x10_4/ul
  Ret: 7%
  WBC: 118.8 x10_2/uL
  KIDNEY_L: 1.1 g
  KIDNEY_R: 1.1 g
  KIDNEY_TOTAL: 2.2 g
  LIVER: 11.7 g
  A/G: 1.9
  ALP: 944.4 IU/L
  ALT: 37 IU/L
  AST: 57.8 IU/L
  BUN: 16.8 mg/dL
  CRE: 0.5 mg/dL
  Ca: 11.6 mg/dL
  Cl: 103 meq/L
  DBIL: 0.026 mg/dL
  GLC: 189.8 mg/dL
  IP: 8.3 mg/dL
  K: 4.6 meq/L
  LDH: 98.8 IU/L
  Na: 141.4 meq/L
  PL: 142 mg/dL
  RALB: 3.5 g/dL
  TBIL: 0.4 mg/dL
  TC: 80.8 mg/dL
  TG: 56.8 mg/dL
  TP: 5.4 g/dL
  gamma-GTP: 1.2 IU/L
[7]
  TERMINAL_BW: 293.9 g
  APTT: 16.3 s
  Bas: 0%
  Eos: 1%
  Fbg: 234.8 mg/dL
  Hb: 13.9 g/dL
  Ht: 42%
  Lym: 83.2%
  MCH: 20.8 pg
  MCHC: 33.1%
  MCV: 62.7 fL
  Mono: 4.2%
  Neu: 11.8%
  PT: 11.2 s
  Plat: 140.6 x10_4/uL
  RBC: 670 x10_4/ul
  Ret: 5.6%
  WBC: 139.9 x10_2/uL
  KIDNEY_L: 1.2 g
  KIDNEY_R: 1.2 g
  KIDNEY_TOTAL: 2.4 g
  LIVER: 13.4 g
  A/G: 2.1
  ALP: 849.4 IU/L
  ALT: 35.4 IU/L
  AST: 62.2 IU/L
  BUN: 17.8 mg/dL
  CRE: 0.5 mg/dL
  Ca: 11.4 mg/dL
  Cl: 102.6 meq/L
  DBIL: 0.022 mg/dL
  GLC: 201.8 mg/dL
  IP: 8.2 mg/dL
  K: 4.8 meq/L
  LDH: 101.8 IU/L
  Na: 140 meq/L
  PL: 142.4 mg/dL
  RALB: 3.7 g/dL
  TBIL: 0.5 mg/dL
  TC: 73.6 mg/dL
  TG: 82 mg/dL
  TP: 5.5 g/dL
  gamma-GTP: 1.6 IU/L
[8]
  TERMINAL_BW: 349.6 g
  APTT: 17.3 s
  Bas: 0%
  Eos: 1.2%
  Fbg: 244.2 mg/dL
  Hb: 15.3 g/dL
  Ht: 45.1%
  Lym: 80.8%
  MCH: 19.8 pg
  MCHC: 33.9%
  MCV: 58.3 fL
  Mono: 5%
  Neu: 13.4%
  PT: 11.3 s
  Plat: 141.8 x10_4/uL
  RBC: 772.4 x10_4/ul
  Ret: 2.8%
  WBC: 147.5 x10_2/uL
  KIDNEY_L: 1.3 g
  KIDNEY_R: 1.4 g
  KIDNEY_TOTAL: 2.7 g
  LIVER: 15.4 g
  A/G: 1.8
  ALP: 589.2 IU/L
  ALT: 38.4 IU/L
  AST: 61.8 IU/L
  BUN: 19 mg/dL
  CRE: 0.7 mg/dL
  Ca: 11 mg/dL
  Cl: 103.2 meq/L
  DBIL: 0.036 mg/dL
  GLC: 187.2 mg/dL
  IP: 7.3 mg/dL
  K: 4.8 meq/L
  LDH: 88.4 IU/L
  Na: 140.8 meq/L
  PL: 172.8 mg/dL
  RALB: 3.9 g/dL
  TBIL: 0.3 mg/dL
  TC: 96.8 mg/dL
  TG: 73.6 mg/dL
  TP: 6.1 g/dL
  gamma-GTP: 1.4 IU/L
